The text below walks through data of patent publication US6946464B2, “Methods of treating and preventing a convulsive state” (Sepracor Inc., priority 1999, dated 2005).

Data set [1] concerns the target central benzodiazepine receptor. Description: Binding at the central benzodiazepine receptor (competition of specific binding). The conditions noted are these: rat cerebral cortex; for IC50: 10 concentrations in duplicate, nonlinear regression; for Ki: inhibition constant calculated from competition curves. The procedure: (§1) The binding of N-desmethylzopiclone was determined at the central benzodiazepine receptor and at the non-selective muscarinic receptor, both of which were isolated from rat cerebral cortex. Compounds were tested initially at 10 μM in duplicate, and if at least a 50% inhibition of specific binding was observed, they were tested further at 10 different concentrations in duplicate in order to obtain full competition curves. IC50 values (concentration required to inhibit 50% specific binding) were determined by nonlinear regression analysis of the curves, and inhibition constants (Ki) were also calculated.

For data set [2], the system named is non-selective muscarinic receptor. The data set can be described thus: Binding at the non-selective muscarinic receptor. Conditions: rat cerebral cortex; tested at 10 μM in duplicate. As for the experimental part:
as §1

The conditions of data set [3]: as reported by Goa and Heel, Drugs 32:48-65 (1986); cited from earlier work.
The conditions of data set [4]: healthy humans; cited from earlier work.

The term IC50 denotes the concentration that inhibits the measured activity by half. By Ki is commonly meant a measure of affinity in units of concentration, obtained from inhibition or displacement. As for `O=C(OC1c2nccnc2C(=O)N1c1ccc(Cl)cn1)N1CCNCC1` (racemic) [(±)-N-desmethylzopiclone], in data set [1], the IC50 turned out to be 1.1 µM and the Ki is 0.924 µM. The “Muscarinic (% Inhibition)” value in data set [2] was 10%.
On the same counts, the results for `O=C(O[C@H]1c2nccnc2C(=O)N1c1ccc(Cl)cn1)N1CCNCC1` [(+)-N-desmethylzopiclone] are 0.545 µM, 0.458 µM and 19%.
Consider `O=C(O[C@@H]1c2nccnc2C(=O)N1c1ccc(Cl)cn1)N1CCNCC1` [(−)-N-desmethylzopiclone], for which, in data set [1], the IC50 was found to be 7.09 µM and the Ki was 5.96 µM. Also, in data set [2], the “Muscarinic (% Inhibition)” value is reported as 24%.
Regarding `CN1C(=O)CN=C(c2ccccc2)c2cc(Cl)ccc21` [Diazepam, reference compound], in data set [1], the IC50 amounted to 0.012 µM and the Ki was 0.01 µM.
With `O=C(O[C@H]1c2nccnc2C(=O)N1c1ccc(Cl)cn1)N1CCNCC1` [N-desmethylzopiclone], the reported pharmacological activity entry in data set [3] was “inactive”. Also, the “share of an oral dose of racemic zopiclone accounted for by the metabolite” value in data set [4] is recorded as 15%.
For `C[N+]1([O-])CCN(C(=O)O[C@H]2c3nccnc3C(=O)N2c2ccc(Cl)cn2)CC1` [N-oxidezopiclone, reference compound], in data set [3], the reported pharmacological activity entry is given as “less active than zopiclone”. The “share of an oral dose of racemic zopiclone accounted for by the metabolite” value in data set [4] is given as 11%.
